# Results: patent US12582632B2, “Inhibition of neurological injuries due to infections via administration of Butanetap and analogs thereof” (priority 2021, dated 2026)
# Columns and labels:
# [1] = Phase 1 single and multiple ascending dose safety, tolerance, pharmacokinetic studies in healthy volunteers; type: in vivo, human; details: Phase I pharmacokinetic analyses
# Source text: Three Phase I clinical studies have established butanetap's safety. […] Therefore, we conclude that a much lower single daily butanetap dose would be effective in the proposed study.
# [2] = Efficacious concentration in tissue culture; type: cell-based
# [3] = tested on: APP in SH-SY-5Y human neuroblastoma cells; test: APP in vitro, Western blot; type: cell-based; details: 0, 0.1, 1, 5 and 10 μM, FIG. 1
# APP and its fragments = test: APP and fragments in hippocampus of APP/PS1 transgenic AD mice; type: in vivo
# Source text: GAPDH and Synaptophysin were loading controls. FIG. 2 also includes a collection of graphs showing relative density of APP plotted against control and time after butanetap treatment; relative density of CTFβ plotted against control and time after butanetap treatment; relative density of CTFα plotted against control and time after butanetap treatment; Aβ42 levels in brain tissue plotted against control and time after butanetap treatment; and Aβ40 levels in brain tissue plotted against control and time after butanetap treatment. Finally, FIG. 2 also includes a Western blot showing levels of APP, NSB, CTFβ, and CTFα after butanetap treatment over time (minutes).
# [4] = tested on: Tau in transgenic neo-natal human Tau mice cells; test: Tau in vitro; type: cell-based; details: cells treated for 4 days, antibodies against Tau and phospho-Tau, FIG. 3
# Method: (§1) The cells were treated for 4 days with butanetap harvested, solubilized, and tested with antibodies against Tau and phospho-Tau. • B. FIG. 4, Tau in vivo. […] After 6 weeks, mice were killed and the total and insoluble (aggregated) tau was measured. […] Precipitated tau corresponds to tangles in the brain.
# [5] = tested on: insoluble (aggregated) tau; test: Tau in vivo, hTau mice, ELISA; details: in mouse chow, 6 weeks; three of the 4 ELISA assays, FIG. 4
# Method: as §1
# αSYN = type: in vivo, mice; details: 50 and 65 mg/kg for 21 days, FIG. 6
# alpha-synuclein = alpha-synuclein in gut in vivo, PD A53T mice, Western blot
# Method: • A. FIG. 5, alpha-synuclein in vitro. […] On the left is a Western blot showing butanetap inhibition of aSYN in relation to Actin standard at concentrations of 0, 0.1, 1, 5 and 10 μM and on the right a graph showing the same data plotted for statistical analysis purposes. • B. FIG. 6, alpha-synuclein brain in vivo. […] The animals were only treated for 2 weeks, so in brain it takes butanetap only 2 weeks to lower levels of alpha-synuclein. • C. FIG. 7, alpha-synuclein in gut in vivo. Gut levels of aSYN following treatment of PD A53T mice with 10 mg/kg for 21 weeks and 21 days reduced αSYN levels in the gut as shown by Western Blot.
# [6] = tested on: Immortalized Mouse Astrocytes—SV40T (IMA2.1); test: Gingipain cytotoxicity on astrocytes, AlamarBlue viability; type: cell-based; details: retest at much lower concentrations, 1 nM, FIG. 10
# Method: Immortalized Mouse Astrocytes—SV40T (IMA2.1), immortalized Mouse Microglia (SIM-A9) and immortalized neuroblastoma (SH-SY5Y) cells were infected for 48 hours with gingipains HRgpA and RgpB (arginine gingipains), and Kgp (lysine-specific cysteine proteinase—Lys-gingipain, KGP). After 48 hours the cells were assessed for viability with the AlamarBlue assay and the percentage of dead or alive cells versus control was plotted. […] As expected, since neither are dying, […]. […] Therefore, we expect the efficacious buntanetap dose to fight P. gingivalis infection to be the same as to treat Alzheimer's and Parkinson's disease has no impact on the microglia or neuroblastoma survival in the presence of gingipains.
# FIG. 10 show the results of retesting of the gingipain effect on astroglia at much lower concentrations.
# [7] = tested on: APP/PS1 transgenic (tg) mouse model of AD; test: APP/PS1 transgenic mouse model of AD, memory, learning and synaptic transmission; type: in vivo
# Source text: (§2) Butanetap's efficacy in treating neurodegeneration in animal models: Restored memory and learning in an APP/PS1 transgenic (tg) mouse model of AD; Restored memory and learning in a Ts65dn mouse model of Down syndrome (DS) [W. Mobley, UCSD, submitted 2020]; Preserved the retina in acute glaucoma [J Sundstrom; Hershey Medical School]; Restored colonic motility in a human SNCAA53T tg mouse model of PD (Kuo et. al., Am J Neurodegener Dis 2019; 8(1):1-15 www.AJND.us/ISSN:216 591X/AJND0086080: Translational inhibition of α-synuclein by Butanetap (Posiphen) normalizes distal colon motility in transgenic Parkinson mice); Preserved memory and learning in traumatic brain injury rats (M-F Chesselet, submitted 2020).
# (§3) Butanetap's reversal of the neurotoxic cascade: Butanetap's mechanism of action is related to APP, Tau, and aSYN expression being regulated by RP1 and by iron and the way these proteins contribute to neurodegeneration by accumulating as toxic aggregates that impair axonal transport and synaptic transmission, causing inflammation, and, finally, leading to nerve cell death (as described previously).
# [8] = tested on: Ts65dn mouse model of Down syndrome (DS); test: Ts65dn mouse model of Down syndrome; type: in vivo; details: Ts65dn mice
# Source text: as §2
# rat acute glaucoma model = test: Acute glaucoma model; type: in vivo
# Source text: as §2, §3
# [9] = tested on: neurotoxic aggregating proteins; test: Translation of neurotoxic aggregating proteins in healthy mouse brain; type: in vivo
# Source text: (§4) Therefore, the original data concerning the effects of butanetap working under all conditions is wrong. (See, e.g., Lahiri, et al., “The Experimental Alzheimer's Disease Drug butanetap [(+)-Phenserine] Lowers Amyloid-β Peptide Levels in Cell Culture and Mice”, J. Pharmacol. Ther. 320:386-396, 2007 (hereby incorporated by reference)). It only works in stressed cells, dividing cells and sick cells, e.g., those cells that have high levels of iron.
# [10] = tested on: fully differentiated healthy resting nerve cells; test: Translation of neurotoxic aggregating proteins in differentiated nerve cells; type: cell-based
# Source text: as §4
# [11] = cited from earlier work
# [12] = tested on: human SNCAA53T tg mouse model of PD; details: SNCAA53T tg mice; cited from earlier work
# [13] = tested on: neurotoxic aggregating proteins; test: Neurotoxic aggregating proteins in cerebral cortex of transgenic AD and PD animals
structure (smiles),measurement,setting,value
"CN1CC[C@]2(C)c3cc(OC(=O)Nc4ccccc4)ccc3N(C)C12 (stereo partly drawn) [butanetap, (3aR)-1,3a,8-trimethyl-1,2,3,3a,8,8a-hexahydropyrrolo[2,3-b]indol-5-yl phenylcarbamate]",concentration in brain relative to plasma,[1],about 8 times
same,dose found to be efficacious,[2],1 nM
same,APP in relation to Actin standard,[3],lowers APP in vitro in a dose-dependent manner
same,APP and its fragments (all related peptides) in hippocampus,APP and its fragments; FIG. 2,reduced
same,duration of reduction of APP and related peptides after the last dose,APP and its fragments; hippocampus,at least 9 hours
same,Tau expression,[4],reduces
same,amount of insoluble tau,[5],significant reduction
same,αSYN in the brain,αSYN,reduced
same,reduction of alpha-synuclein levels in the gut,"alpha-synuclein; 10 mg/kg for 21 weeks, p<0.05, FIG. 7",50.6%
same,significant reduction of alpha-synuclein levels in the gut,alpha-synuclein; 10 mg/kg for 21 days,not at 21 days
same,protection of gingipain infected astrocytes,[6],completely protected
same,protection of gingipain infected astrocytes,[6]; listed as buntanetap,protects astrocytes at very low concentrations
same,memory and learning,[7]; APP/PS1 tg mice,Restored
same,impaired synaptic transmission,[7]; hippocampus of APP/PS1 tg mice,Normalized
same,memory and learning,[8],Restored
same,retina,rat acute glaucoma model; acute glaucoma,Preserved
same,nerve cells,rat acute glaucoma model; rat acute glaucoma model,protected
same,translation of neurotoxic aggregating proteins,[9],does not inhibit
same,translation of neurotoxic aggregating proteins,[10],does not inhibit
same,tolerability,[11]; doses up to 4×60 mg daily×10 days,well tolerated
same,terminal half-life,"[11]; plasma, all doses",4.3 to 4.7 h
same,colonic motility,[12],Restored
same,neurotoxic aggregating proteins,[13],not inhibit
